Experimental data: patent publication US20250223268A1, “4-Methylsulfonylbenzamide Compound, Preparation Method, Herbicidal Composition And Use” (Jiangsu Flag Chemical Industry Co., Ltd., priority 2022, published 2025)

Tests used:
Experiment in all cases: Greenhouse herbicidal activity assay, post-emergence
Format in all cases: in vivo
Settings in all cases: Post-emergence test, rate 150 g a.i./hm^2; grade by fresh weight inhibition rate
Leptochloa chinensis = system: Leptochloa chinensis
How it was run: (§1)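 Graded A (≥80%) to E (<20%) by fresh weight inhibition, read 14-21 days after spraying. Plants were pot-grown in a growth chamber and received foliar application at the 3-6 leaf stage, being air-dried and returned to the chamber afterwards.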

Eclipta prostrata = system: Eclipta prostrata
How it was run: as §1

Echinochloa crusgalli = system: Echinochloa crusgalli
How it was run: as §1

Cyperus iria = system: Cyperus iria
How it was run: as §1

Digitaria sanguinalis = system: Digitaria sanguinalis
How it was run: as §1

Row | SMILES | Control efficacy grade, Leptochloa chinensis (Leptochloa chinensis) | Control efficacy grade, Eclipta prostrata (Eclipta prostrata) | Control efficacy grade, Echinochloa crusgalli (Echinochloa crusgalli) | Control efficacy grade, Cyperus iria (Cyperus iria) | Control efficacy grade, Digitaria sanguinalis (Digitaria sanguinalis)
1 | C=CCS(=O)(=O)c1c(S(C)(=O)=O)ccc(C(=O)Nc2ncnn2C)c1Cl [Compound 2-71] | A (Fresh weight inhibition rate≥80% to 100%) | A (Fresh weight inhibition rate≥80% to 100%) | A (Fresh weight inhibition rate≥80% to 100%) | A (Fresh weight inhibition rate≥80% to 100%) | A (Fresh weight inhibition rate≥80% to 100%)
2 | CCC(C)Sc1c(S(C)(=O)=O)ccc(C(=O)Nc2nnc(C)o2)c1Cl (racemic) [Compound 3-16] | A (Fresh weight inhibition rate≥80% to 100%) | A (Fresh weight inhibition rate≥80% to 100%) | A (Fresh weight inhibition rate≥80% to 100%) | A (Fresh weight inhibition rate≥80% to 100%) | A (Fresh weight inhibition rate≥80% to 100%)
3 | C=CCSc1c(S(C)(=O)=O)ccc(C(=O)Nc2ncnn2C)c1Cl [Compound 2-67] | B (Fresh weight inhibition rate≥260% to <80%) | A (Fresh weight inhibition rate≥80% to 100%) | B (Fresh weight inhibition rate≥260% to <80%) | A (Fresh weight inhibition rate≥80% to 100%) | B (Fresh weight inhibition rate≥260% to <80%)
4 | CCCCSc1c(S(C)(=O)=O)ccc(C(=O)Nc2nnc(C)o2)c1Cl [Compound 3-11] | A (Fresh weight inhibition rate≥80% to 100%) | A (Fresh weight inhibition rate≥80% to 100%) | B (Fresh weight inhibition rate≥260% to <80%) | A (Fresh weight inhibition rate≥80% to 100%) | A (Fresh weight inhibition rate≥80% to 100%)
5 | CS(=O)(=O)c1ccc(C(=O)Nc2nnco2)c(Cl)c1[S+]([O-])CC1CC1 (racemic) [Compound 3-299] | A (Fresh weight inhibition rate≥80% to 100%) | A (Fresh weight inhibition rate≥80% to 100%) | A (Fresh weight inhibition rate≥80% to 100%) | A (Fresh weight inhibition rate≥80% to 100%) | A (Fresh weight inhibition rate≥80% to 100%)
6 | Cc1nnc(NC(=O)c2ccc(S(C)(=O)=O)c([S+]([O-])C3CCC3)c2Cl)o1 (racemic) [Compound 3-83] | A (Fresh weight inhibition rate≥80% to 100%) | A (Fresh weight inhibition rate≥80% to 100%) | A (Fresh weight inhibition rate≥80% to 100%) | A (Fresh weight inhibition rate≥80% to 100%) | A (Fresh weight inhibition rate≥80% to 100%)
7 | CCCSc1c(S(C)(=O)=O)ccc(C(=O)Nc2nnc(C)o2)c1Cl [Compound 3-1] | A (Fresh weight inhibition rate≥80% to 100%) | A (Fresh weight inhibition rate≥80% to 100%) | A (Fresh weight inhibition rate≥80% to 100%) | A (Fresh weight inhibition rate≥80% to 100%) | A (Fresh weight inhibition rate≥80% to 100%)
